In BindingDB's records for doi:10.1021/jm950640q (Sankyo, 1997):

Assay: Inhibiting Platelet activating factor receptor by radioreceptor binding assay using rabbit platelets and [3H]-PAF

| SMILES | IC50 |
| --- | --- |
| C/C1=C\CC[C@@]2(C)O[C@@H]2C(=O)[C@@H]2CC[C@@H](C)[C@](C)(CC1)[C@H]2CO [(E)-(1R,3S,5R,12S,13R,16S)-16-Hydroxymethyl-5,9,12,13-tetramethyl-4-oxa-tricyclo[10.3.1.0*3,5*]hexadec-8-en-2-one] | 1300 nM |
| CC(=O)OC[C@H]1[C@H]2CC[C@@H](C)[C@]1(C)CC/C(C)=C/CC[C@@]1(C)O[C@@H]1[C@@H]2O [Acetic acid (E)-(1R,2R,3R,5R,12S,13R,16S)-2-hydroxy-5,9,12,13-tetramethyl-4-oxa-tricyclo[10.3.1.0*3,5*]hexadec-8-en-16-ylmethyl ester] | 80 nM |
| CC(=O)OC[C@H]1[C@H]2CC[C@@H](C)[C@]1(C)CC/C(C)=C/CC[C@@]1(C)O[C@@H]1C2=O [Acetic acid (E)-(1R,3S,5R,12S,13R,16S)-5,9,12,13-tetramethyl-2-oxo-4-oxa-tricyclo[10.3.1.0*3,5*]hexadec-8-en-16-ylmethyl ester] | 410 nM |
| COC(=O)OC[C@H]1[C@H]2CC[C@@H](C)[C@]1(C)CC/C(C)=C/CC[C@@]1(C)O[C@@H]1C2=O [Carbonic acid methyl ester (E)-(1R,3S,5R,12S,13R,16S)-5,9,12,13-tetramethyl-2-oxo-4-oxa-tricyclo[10.3.1.0*3,5*]hexadec-8-en-16-ylmethyl ester] | 26 nM |
| C/C1=C\CC[C@@]2(C)O[C@@H]2C(=O)[C@@H]2CC[C@@H](C)[C@](C)(CC1)[C@H]2COC(=O)Oc1ccccc1 [Carbonic acid phenyl ester (E)-(1R,3S,5R,12S,13R,16S)-5,9,12,13-tetramethyl-2-oxo-4-oxa-tricyclo[10.3.1.0*3,5*]hexadec-8-en-16-ylmethyl ester] | 550 nM |
| CCC(=O)OC[C@H]1[C@H]2CC[C@@H](C)[C@]1(C)CC/C(C)=C/CC[C@@]1(C)O[C@@H]1[C@@H]2O [Propionic acid (E)-(1R,2R,3R,5R,12S,13R,16S)-2-hydroxy-5,9,12,13-tetramethyl-4-oxa-tricyclo[10.3.1.0*3,5*]hexadec-8-en-16-ylmethyl ester] | 340 nM |

Results, then the compound that gave them:

| IC50 | SMILES |
| --- | --- |
| 120 nM | C/C1=C\CC[C@@]2(C)O[C@@H]2C(=O)[C@@H]2CC[C@@H](C)[C@](C)(CC1)[C@H]2C=O [(E)-(1R,3S,5R,12S,13R,16S)-5,9,12,13-Tetramethyl-2-oxo-4-oxa-tricyclo[10.3.1.0*3,5*]hexadec-8-ene-16-carbaldehyde] |
| 50 nM | C/C1=C\CC[C@@]2(C)O[C@@H]2C(=O)[C@@H]2CC[C@@H](C)[C@](C)(CC1)[C@H]2COc1ccon1 [(E)-(1R,3S,5R,12S,13R,16S)-16-(Isoxazol-3-yloxymethyl)-5,9,12,13-tetramethyl-4-oxa-tricyclo[10.3.1.0*3,5*]hexadec-8-en-2-one] |
| 130 nM | COC(=O)OC[C@H]1[C@H]2CC[C@@H](C)[C@]1(C)CC/C(C)=C/CC[C@@]1(C)O[C@@H]1[C@@H]2O [Carbonic acid (E)-(1R,2R,3R,5R,12S,13R,16S)-2-hydroxy-5,9,12,13-tetramethyl-4-oxa-tricyclo[10.3.1.0*3,5*]hexadec-8-en-16-ylmethyl ester methyl ester] |
| 180 nM | C/C1=C\CC[C@@]2(C)O[C@@H]2[C@H](O)[C@@H]2CC[C@@H](C)[C@](C)(CC1)[C@H]2COC(=O)N(C)C [Dimethyl-carbamic acid (E)-(1R,2R,3R,5R,12S,13R,16S)-2-hydroxy-5,9,12,13-tetramethyl-4-oxa-tricyclo[10.3.1.0*3,5*]hexadec-8-en-16-ylmethyl ester] |
| 180 nM | C/C1=C\CC[C@@]2(C)O[C@@H]2C(=O)[C@@H]2CC[C@@H](C)[C@](C)(CC1)[C@H]2COC(=O)N(C)C [Dimethyl-carbamic acid (E)-(1R,3S,5R,12S,13R,16S)-5,9,12,13-tetramethyl-2-oxo-4-oxa-tricyclo[10.3.1.0*3,5*]hexadec-8-en-16-ylmethyl ester] |
